This is an account of results in the NIST ThermoML archive (doi:10.1021/je050428j).

For the data set the following is noted: 298.15 K; 101.33 kPa; Liquid; Vibrating tube method.

Each structure is given as a SMILES string. ± gives the expanded uncertainty stated by the source.

By mass density is commonly meant the mass of a sample divided by its volume. For `CC(=O)N(C)C` [N,N-dimethylethanamide], the mass density is recorded as 936.214 ± 0.48 kg/m3. For the compound `CN(C)C=O` [dimethylformamide], the mass density was determined as 943.875 ± 0.25 kg/m3.

Take `CCCCCCC` [heptane]: the mass density came out at 679.627 ± 0.27 kg/m3. Regarding `CCCCCC` [hexane], the mass density turned out to be 655.248 ± 0.28 kg/m3. Regarding `CCCCCCCCC` [nonane], the mass density was 714.064 ± 0.41 kg/m3. Next, `CCCCCCCC` [octane]: 698.636 ± 0.41 kg/m3.
